# According to US7410975B2, “Small molecule toll-like receptor (TLR) antagonists” (Coley Pharmaceutical Group, Inc., priority 2003, dated 2008):
# Like-named read-outs stand apart in the source and are kept apart here.
# Assays:
# Type in all cases: cell-based
# human TLR9 (hTLR9) [1] = target: T1, human TLR9 (hTLR9) (Homo sapiens, UniProt Q9NR96)
# T1 construct: expressed in transfected cells
# T1 sequence (Q9NR96 26-1032): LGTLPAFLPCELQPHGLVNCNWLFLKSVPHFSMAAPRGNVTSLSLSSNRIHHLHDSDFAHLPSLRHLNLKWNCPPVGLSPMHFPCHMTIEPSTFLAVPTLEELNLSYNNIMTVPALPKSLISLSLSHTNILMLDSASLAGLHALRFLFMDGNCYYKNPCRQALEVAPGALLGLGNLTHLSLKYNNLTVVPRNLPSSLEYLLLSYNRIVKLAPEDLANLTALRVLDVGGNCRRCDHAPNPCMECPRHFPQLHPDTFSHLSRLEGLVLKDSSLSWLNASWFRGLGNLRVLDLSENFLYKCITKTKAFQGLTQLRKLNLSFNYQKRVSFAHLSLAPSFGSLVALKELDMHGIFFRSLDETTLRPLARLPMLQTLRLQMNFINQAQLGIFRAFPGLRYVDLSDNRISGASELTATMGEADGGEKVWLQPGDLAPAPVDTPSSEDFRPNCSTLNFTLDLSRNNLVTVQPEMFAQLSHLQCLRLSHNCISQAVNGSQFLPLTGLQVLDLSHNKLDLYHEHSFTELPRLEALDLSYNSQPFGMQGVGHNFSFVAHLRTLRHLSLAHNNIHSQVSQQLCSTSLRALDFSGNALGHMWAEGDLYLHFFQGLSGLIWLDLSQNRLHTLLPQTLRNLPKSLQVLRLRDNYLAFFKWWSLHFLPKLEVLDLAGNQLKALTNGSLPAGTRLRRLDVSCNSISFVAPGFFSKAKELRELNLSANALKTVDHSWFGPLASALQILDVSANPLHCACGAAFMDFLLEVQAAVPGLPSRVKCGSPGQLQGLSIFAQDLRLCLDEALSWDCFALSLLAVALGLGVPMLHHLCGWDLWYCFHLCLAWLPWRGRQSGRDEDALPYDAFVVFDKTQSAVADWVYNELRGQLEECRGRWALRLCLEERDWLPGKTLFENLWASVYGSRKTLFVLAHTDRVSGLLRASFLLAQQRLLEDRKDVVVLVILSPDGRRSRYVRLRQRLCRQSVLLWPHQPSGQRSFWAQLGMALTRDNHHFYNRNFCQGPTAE
# Experimental: Stably co-transfecting the human TLR9 receptor (hTLR9) and an NF-κB promoter-driven luciferase gene into HEK-293 cells created the cell line hTLR9-NFkB-293. hTLR9-NFkB-293 cells were counted and seeded at 1.5×10^4 cells per well in 96-well cell culture plates one day before assaying and cultured at 37° C./5% CO2. The day of the assay, antagonist was added at 50 μM, 5.0 μM or 0.5 μM. The cells were then stimulated with the EC50 dose of the TLR9 agonist, CpG-ODN 2006, and cultured for 16 h in a humidified incubator at 37° C. The culture supernatant was removed and the cells were treated with lysis buffer and stored at −80° C. before measuring luciferase activity. The luciferase readout was measured according to manufacturer's instructions using a luciferase assay system available from Promega, USA. The antagonist dose listed in Table 18 is the minimum effective dose (μM) for blockade of the TLR9 agonist. As evident from the results presented in Table 18, the minimum effective dose (μM) for blockade of the TLR9 agonist was 0.5 μM or 5 μM for all of the compounds tested, as measured by this three-point assay.
# hTLR9 = target: T2, hTLR9 (Homo sapiens, UniProt Q9NR96); assay: hTLR9 antagonism IC50, hTLR9-NFkB-293 cells, luciferase readout, CpG-ODN 2006 (Examples 8 and 18, Tables 19 and 20); settings: for inhibition of TLR9 signaling in vitro (in words): CpG-ODN 2006
# T2 construct: expressed in transfected cells
# T2 sequence (Q9NR96 26-1032): T1 sequence (Q9NR96 26-1032)
# Experimental: (§1) hTLR9-NFkB-293 cells were counted and seeded at 1.5×10^4 cells per well in 96-well cell culture plates one day before assaying and cultured at 37° C./5% CO2, as described in Example 7. The day of the assay, antagonist was added at varying concentrations starting at 50 μM with a 1/5 to 1/6 dilution for 7 steps. The cells were then stimulated with the EC50 dose of the TLR9 agonist, CpG-ODN 2006, and cultured for 16 h in a humidified incubator at 37° C. The culture supernatant was removed and the cells were treated with lysis buffer and stored at −80° C. before measuring luciferase activity as described in Example 7. […] Results shown in Table 19 under the heading hTLR9 are the IC50 dose (μM) for blockade of a CpG ODN-generated signal in hTLR9-NFkB-293 cells.
# as §1, with “20” for “19”
# human TLR9 (hTLR9) [2] = target: T1, human TLR9 (hTLR9); assay: Antagonist screen, hTLR9-NFκB-293 cells, 6× NF-κB-luciferase reporter, with EC50 of CpG ODN 2006; settings: compound at 0.5, 5, 50 μg/ml; EC50 concentration of CpG ODN 2006; 16 h; NF-κB-luciferase
# Experimental: Candidate small molecules for initial screening were obtained from a commercially available library of 880 off-patent small molecules selected for structural diversity and proven bioavailability in humans (Prestwick Chemical Library). […] Results were measured as fold induction over baseline luciferase activity measured in the absence of ODN 2006 and compared to fold induction over baseline in the presence of the EC50 concentration of ODN 2006 alone. […] Additional screening was performed in like manner using additional small molecules selected from another library or specifically prepared for this purpose.
# The method is described in greater detail as follows. The cells for each individual cell clone (hTLR3-NFκB-293, hTLR7-NFκB-293, hTLR8-NFκB-293 and hTLR9-NFκB-293) were counted and seeded one day before the stimulation at 1.5×10^4 cells per well in 96-well cell culture plates. To become adherent the cells were incubated after seeding overnight at 37° C. in 5% CO2 humidified air.
# The screen for each compound was performed at the same time for all of the receptors TLR3, TLR7, TLR8 and TLR9. Up to fifteen test compounds, each assayed in duplicate at each of three different final concentrations (0.5 μg/ml, 5 μg/ml, and 50 μg/ml), were used for 16 h cell stimulation on a single multiwell culture plate. A 4× final concentration master plate was created to prepare the different test compounds before they were added to the cells.
# Controls were added as duplicates individually for each cell clone on the cell culture plate. Positive controls were used as follows (final concentrations): 50 μg/ml poly(I:C) for hTLR3-NFκB-293; 8 μM resiquimod (R848) for hTLR7-NFκB-293; 30 μM R848 for hTLR8-NFκB-293; and 2.5 μM CpG-ODN 2006 for hTLR9-NFκB-293. Media alone was used as negative control. After addition of controls and small molecules, the cell clones were additionally stimulated with the EC50 concentration of the appropriate receptor-specific ligand.
# The mean value of wells H2 and H5 (each with cells and EC50 concentration of the appropriate receptor-specific ligand) divided by the mean of wells H3 and H6 (each with cells alone) yielded the baseline response (i.e., fold induction of luciferase activity) to EC50 concentration of the appropriate receptor-specific ligand.
# After 16 h stimulation the supernatant was removed and the cells treated with lysis buffer and stored at −80° C. before measuring.
# For each screen result a graphical documentation was performed.
# The baseline result (measured with addition of the EC50 concentration of the receptor-specific ligand) for each cell culture plate was measured as described above. Antagonistic effects were measured by down regulation compared to the baseline. Antagonists were scored as follows: • 13: compounds for which there was clear down regulation at 0.5 μg/ml, 5 μg/ml, and 50 μg/ml; • 12: compounds for which there was clear down regulation at 5 μg/ml and 50 μg/ml; • 11: compounds for which there was clear down regulation only at 50 μg/ml; • —: compounds for which there was no clear down regulation even at 50 μg/ml. Agonists
# [3] = three-point assay at 50, 5.0 or 0.5 μM, EC50 dose of CpG-ODN 2006, 16 h
# [4] = hTLR9-NFkB-293 cells, EC50 dose of CpG-ODN 2006, 16 h, Table 19 quinazolines, read-out: hTLR9 (IC50 dose for blockade of a CpG ODN-generated signal)
# [5] = hTLR9-NFkB-293 cells, EC50 dose of CpG-ODN 2006, 16 h, Table 20 diarylmethanes, read-out: hTLR9 (IC50 dose for blockade of a CpG ODN-generated signal)
structure (smiles),measurement,setting,value
"Cc1ccc2nc3c(c(N)c2c1)CCN3c1ccccc1 [1552(127), 6-Methyl-1-phenyl-2,3-dihydro-1H-pyrrolo[2,3-b]quinolin-4-ylamine]",antagonist dose (minimum effective dose for blockade of the TLR9 agonist),human TLR9 (hTLR9) [1]; [3],0.5 µM
"CN(C)c1cc(N)c2ccccc2n1 [1553(128), N*2*,N*2*-Dimethyl-quinoline-2,4-diamine]",antagonist dose (minimum effective dose for blockade of the TLR9 agonist),human TLR9 (hTLR9) [1]; [3],0.5 µM
"CN(C)CCOc1nc(-c2ccccc2)nc2ccccc12 [CMZ 203-45, Dimethyl-[2-(2-phenyl-quinazolin-4-yloxy)-ethyl]-amine]",IC50,hTLR9; [4],29 µM
CN1CCN(c2ccc(C(O)c3ccccc3)cc2)CC1 (stereo not drawn) [CMZ 203-84],IC50,hTLR9,25.6 µM
same,inhibition of TLR9 signaling in vitro (in words),hTLR9; hTLR9-NFkB-293 cells,found to inhibit TLR9 signaling
CN(C)CCOC(c1ccccc1)c1ccc(N2CCN(C)CC2)cc1 (stereo not drawn) [CMZ 203-85],inhibition of TLR9 signaling in vitro (in words),hTLR9; hTLR9-NFkB-293 cells,found to inhibit TLR9 signaling
same,IC50,hTLR9; [5],0.372 µM
CN1CCN(c2ccc(-c3nc(NCCN4CCOCC4)c4ccccc4n3)cc2)CC1 [CMZ 203-87],IC50,hTLR9; [4],0.02 µM
CN1CCN(c2ccc(Cc3ccccc3)cc2)CC1 [CMZ 203-88-1],IC50,hTLR9,12 µM
same,inhibition of TLR9 signaling in vitro (in words),hTLR9; hTLR9-NFkB-293 cells,found to inhibit TLR9 signaling
CN1CCN(c2ccc(/C(=N\O)c3ccccc3)cc2)CC1 [CMZ 203-88],inhibition of TLR9 signaling in vitro (in words),hTLR9; hTLR9-NFkB-293 cells,found to inhibit TLR9 signaling
same,IC50,hTLR9; [5],11.6 µM
CN(C)CCNC(c1ccccc1)c1ccc(N2CCN(C)CC2)cc1 (stereo not drawn) [CMZ 203-89],inhibition of TLR9 signaling in vitro (in words),hTLR9; hTLR9-NFkB-293 cells,found to inhibit TLR9 signaling
same,IC50,hTLR9; [5],0.241 µM
COc1cc2nc(N3CCN(c4ccccc4)CC3)nc(N)c2cc1OC [CMZ 203-90],IC50,hTLR9; [4],5.43 µM
CN1CCN(c2ccc(C(c3ccccc3)N3CCN(C)CC3)cc2)CC1 (stereo not drawn) [CMZ 203-91],inhibition of TLR9 signaling in vitro (in words),hTLR9; hTLR9-NFkB-293 cells,found to inhibit TLR9 signaling
same,IC50,hTLR9; [5],3.95 µM
"CN(C)CCCN1c2ccccc2CCc2ccccc21.Cl [compound 72, Imipraminehydrochloride]","hTLR9 (inhibitory effect, antagonist score)",human TLR9 (hTLR9) [2],"13 (compounds for which there was clear down regulation at 0.5 μg/ml, 5 μg/ml, and 50 μg/ml)"
"Cl.Nc1c2c(nc3ccccc13)CCCC2 [compound 329, 1,2,3,4-Tetrahydro-acridin-9-ylamine Tacrine hydrochloridehydrate, reference compound]",antagonist dose (minimum effective dose for blockade of the TLR9 agonist),human TLR9 (hTLR9) [1],5.0 µM
"Nc1c2c(nc3ccccc13)CCCCC2 [compound 936, 7,8,9,10-Tetrahydro-6H-cyclohepta[b]quinolin-11-ylamine]",antagonist dose (minimum effective dose for blockade of the TLR9 agonist),human TLR9 (hTLR9) [1]; [3],0.5 µM
"Nc1c2c(nc3ccccc13)CCC2 [compound 1061, 2,3-Dihydro-1H-cyclopenta[b]quinolin-9-ylamine]",antagonist dose (minimum effective dose for blockade of the TLR9 agonist),human TLR9 (hTLR9) [1]; [3],5.0 µM
"CC1(C)C=Cc2c(nc3ccccc3c2N)C1 [compound 1201, 3,3-Dimethyl-3,4-dihydro-acridin-9-ylamine]",antagonist dose (minimum effective dose for blockade of the TLR9 agonist),human TLR9 (hTLR9) [1]; [3],0.5 µM
"Cc1cc(C)c2c(N)c3cccc(C)c3nc2n1 [compound 1227, 2,4,9-Trimethyl-benzo[b][1,8]naphthyridin-5-ylamine]",antagonist dose (minimum effective dose for blockade of the TLR9 agonist),human TLR9 (hTLR9) [1]; [3],5.0 µM
"CC1(C)Cc2nc3ccccc3c(N)c2C(O)C1 (stereo not drawn) [compound 1286, 9-Amino-3,3-dimethyl-1,2,3,4-tetrahydro-acridin-1-ol]",antagonist dose (minimum effective dose for blockade of the TLR9 agonist),human TLR9 (hTLR9) [1]; [3],5.0 µM
"Cc1ccc2nc3nc4c(C)cccc4c(N)c3cc2c1 [compound 1595, 2,7-Dimethyl-dibenzo[b,g][1,8]naphthyridin-11-ylamine]",antagonist dose (minimum effective dose for blockade of the TLR9 agonist),human TLR9 (hTLR9) [1]; [3],0.5 µM
"CCOc1ccc2nc3cc(NCc4ccco4)ccc3c(N)c2c1 [compound 1674, 7-Ethoxy-N*3*-furan-2-ylmethyl-acridine-3,9-diamine]",antagonist dose (minimum effective dose for blockade of the TLR9 agonist),human TLR9 (hTLR9) [1]; [3],5.0 µM
"Cc1cc(C)c2c(N)c3ccccc3nc2n1 [compound 1690, 2,4-Dimethyl-benzo[b][1,8]naphthyridin-5-ylamine]",antagonist dose (minimum effective dose for blockade of the TLR9 agonist),human TLR9 (hTLR9) [1]; [3],0.5 µM
